Data taken from patent US20260041649A1, “ANTI-INFLAMMATORY AGENT” (WATANABE OYSTER LABORATORY, CO., LTD., priority 2023, published 2026).

Tested on: mouse macrophage RAW264.7 cells
Experiment: Western blotting of proteins related to proliferation
Format: cell-based
Details: DHMBA 10 μM, 3 days
Experimental: RAW264.7 cells (1×10^6 cells/10 ml of medium in 100 mm dish) were cultured for 3 days in a DMEM culture medium containing 10% FBS, 1% P/S, and 1% fungizone in the control group (1% ethanol; 0 μM DHMBA as final concentration) and the DHMBA treated group (10 μM). After the culture, cells were removed from the dish using a cell scraper in a cell lysis buffer containing protease inhibitors. Forty micrograms of supernatant protein per lane were separated by electrophoresis on a 12% SDS-PAGE gel, transferred onto a […], and probed by Western blotting with antibodies against various proteins. […] In FIG. 3(B), band intensities are shown as fold increase over the control. Data are presented as the mean±SD of values obtained from 4 dishes using different cell preparations. *: Significant difference (p<0.001) between the control group and the DHMBA-treated group. Statistical analysis was performed using 1-way ANOVA with Tukey-Kramer post-test.
RAW264.7 cells (1×10^6 cells/10 ml of 100 mm dish) were cultured for 3 days in 10% FBS, 1% P/S (1% ethanol), or in the DHMBA-treated group (10 μM). After the culture, the dishes were washed with cold PBS (10 ml) to remove floating and dead cells. The cell lysis buffer (Cell Signaling Technology, Inc., Danvers, MA, USA) supplemented with protease/protein phosphatase inhibitor (Roche Diagnostics, Indianapolis, IN, USA) was added to the cells to collect cell lysates of the adherent cells as described in the previous study. The cell lysates were centrifuged at 17,000×g, 4° C. for 10 min. Protein concentrations in the supernatants were measured using Bio-Rad Protein Assay Dye (Bio-Rad Laboratories, Inc., Hercules, CA, USA) with bovine serum albumin as a standard. The cell lysates were stored at −80° C. until use. The supernatant proteins (40 μg/lane) were separated by SDS-polyacrylamide gel electrophoresis (12% SDS-PAGE) and transferred to a PVDF membrane. The transferred membranes were immunoblotted with specific antibodies against various proteins, including Ras (cat. no. 3339, rabbit), Akt (cat. no. 9272, rabbit), mitogen-activated protein kinase (MAPK; cat. no. 4695, rabbit), phosphorylated MAPK (cat. no. 4370, rabbit), mechanistic target of rapamycin (mTOR; cat. no. 4517, mouse), Rb (cat. no. 9309, mouse), p21 (cat. no. 2947, rabbit), STAT3 (cat. no. 12640, rabbit), COX-1 (cat. no. 48415), COX-2 (cat. no. 4842), and β-actin (cat. no. 3700, mouse), all of which were purchased from Cell Signaling Technology, Inc. (Danvers, MA, USA). Specific antibodies for p53 (cat. no. sc-126, mouse) and NF-κB p65 (cat. no. sc-109, rabbit) were purchased from Santa Cruz Biotechnology Inc. (Santa Cruz, CA, USA). Additionally, rabbit anti-regucalcin antibody (cat. no. HPA029103, rabbit) was obtained from Sigma-Aldrich. Target proteins were incubated overnight at 4° C. with one of the above primary antibodies (1:1,000). After incubation, the membranes were further incubated with horseradish peroxidase-conjugated secondary antibodies (Santa Cruz Biotechnology Inc., cat. no. sc-2005 (mouse) or sc-2305 (rabbit); dilution 1:2000) for 60 min at room temperature, and protein bands were detected using chemiluminescence substrates (cat. no. 34577, Thermo Fisher Scientific Inc., Rockford, IL, USA) on X-ray films. From 4 independent experiments, a total of 3 or 4 films with separate membranes were scanned with Epson Perfection 1660 Photo scanner to quantify the bands using Image J2 software (National Institutes of Health, Bethesda, MD, USA). In addition, for immunoblotting using additional antibodies, the membranes were incubated at room temperature for 30 min with Restore (registered trademark) Western Blot Stripping Buffer (cat. no. 21059; Thermo Fisher Scientific Inc., Rockford, IL, USA) to remove attached chemiluminescence substrates (Thermo Fisher Scientific Inc.,) and were used to measure other protein molecules.

SMILES: COc1c(O)cc(CO)cc1O [DHMBA, 3,5-dihydroxy-4-methoxybenzyl alcohol]
- expression level of Rb: increased
- expression level of p21: increased
- expression level of p53: increased
- expression level of regucalcin: increased
- level of Akt: decreased
- level of MAPK: decreased
- level of PI3 kinase: decreased
- level of Ras: decreased
- level of mTOR: decreased
- level of phospho-MAPK: decreased
